# Test results as given in the NIST ThermoML archive (doi:10.1021/je1012235).
# ± gives the expanded uncertainty stated by the source.
# Settings: 278.15 K; 101.33 kPa; Liquid
row,Compound,viscosity [mPa·s]
1,"CC/C=C\C/C=C\C/C=C\CCCCCCCC(=O)OC [methyl (Z,Z,Z)-9,12,15-octadecatrienoate]",6.361 ± 0.083
2,CCCCC/C=C\C/C=C\CCCCCCCC(=O)OCC [ethyl linoleate],8.188 ± 0.11
3,CCCCCCCC/C=C\CCCCCCCCCC(=O)OC [methyl cis-11-eicosenoate],14.34 ± 0.22
4,"CC/C=C\C/C=C\C/C=C\CCCCCCCC(=O)OCC [ethyl 9,12,15-octadecatrienoate]",6.282 ± 0.082
5,CCCCCC/C=C\CCCCCCCC(=O)OC [methyl (Z)-9-hexadecenoate],6.169 ± 0.081
6,CCCCCCCC/C=C\CCCCCCCCCCCC(=O)OC [methyl (Z)-13-docosenoate],18.09 ± 0.23

# Same assay, conditions: 278.15 K; 101.33 kPa; Liquid; Vibrating tube method
row,Compound,mass density [kg/m3]
1,"CC/C=C\C/C=C\C/C=C\CCCCCCCC(=O)OC [methyl (Z,Z,Z)-9,12,15-octadecatrienoate]",913.2 ± 1
2,CCCCC/C=C\C/C=C\CCCCCCCC(=O)OCC [ethyl linoleate],893.8 ± 1
3,CCCCCCCC/C=C\CCCCCCCCCC(=O)OC [methyl cis-11-eicosenoate],884.8 ± 1.2
4,"CC/C=C\C/C=C\C/C=C\CCCCCCCC(=O)OCC [ethyl 9,12,15-octadecatrienoate]",904.6 ± 1
5,CCCCCC/C=C\CCCCCCCC(=O)OC [methyl (Z)-9-hexadecenoate],880.4 ± 1
6,CCCCCCCC/C=C\CCCCCCCCCCCC(=O)OC [methyl (Z)-13-docosenoate],881.6 ± 1

# Same assay, conditions: 283.15 K; 101.33 kPa; Liquid
row,Compound,viscosity [mPa·s]
1,"CC/C=C\C/C=C\C/C=C\CCCCCCCC(=O)OC [methyl (Z,Z,Z)-9,12,15-octadecatrienoate]",5.618 ± 0.074
2,CCCCC/C=C\C/C=C\CCCCCCCC(=O)OCC [ethyl linoleate],7.084 ± 0.092
3,CCCCCCCC/C=C\CCCCCCCCCC(=O)OC [methyl cis-11-eicosenoate],11.97 ± 0.19
4,"CC/C=C\C/C=C\C/C=C\CCCCCCCC(=O)OCC [ethyl 9,12,15-octadecatrienoate]",5.538 ± 0.073
5,CCCCCC/C=C\CCCCCCCC(=O)OC [methyl (Z)-9-hexadecenoate],5.367 ± 0.071
6,CCCCCCCC/C=C\CCCCCCCCCCCC(=O)OC [methyl (Z)-13-docosenoate],14.94 ± 0.19

# Same assay, conditions: 283.15 K; 101.33 kPa; Liquid; Vibrating tube method
row,Compound,mass density [kg/m3]
1,"CC/C=C\C/C=C\C/C=C\CCCCCCCC(=O)OC [methyl (Z,Z,Z)-9,12,15-octadecatrienoate]",909.5 ± 1
2,CCCCC/C=C\C/C=C\CCCCCCCC(=O)OCC [ethyl linoleate],890 ± 1
3,CCCCCCCC/C=C\CCCCCCCCCC(=O)OC [methyl cis-11-eicosenoate],881.1 ± 1.2
4,"CC/C=C\C/C=C\C/C=C\CCCCCCCC(=O)OCC [ethyl 9,12,15-octadecatrienoate]",900.8 ± 1
5,CCCCCC/C=C\CCCCCCCC(=O)OC [methyl (Z)-9-hexadecenoate],876.6 ± 1
6,CCCCCCCC/C=C\CCCCCCCCCCCC(=O)OC [methyl (Z)-13-docosenoate],877.9 ± 1

# Same assay, conditions: 288.15 K; 101.33 kPa; Liquid
row,Compound,viscosity [mPa·s]
1,"CC/C=C\C/C=C\C/C=C\CCCCCCCC(=O)OC [methyl (Z,Z,Z)-9,12,15-octadecatrienoate]",5.003 ± 0.066
2,CCCCC/C=C\C/C=C\CCCCCCCC(=O)OCC [ethyl linoleate],6.165 ± 0.081
3,CCCCCCCC/C=C\CCCCCCCCCC(=O)OC [methyl cis-11-eicosenoate],10.13 ± 0.16
4,"CC/C=C\C/C=C\C/C=C\CCCCCCCC(=O)OCC [ethyl 9,12,15-octadecatrienoate]",4.921 ± 0.065
5,CCCCCC/C=C\CCCCCCCC(=O)OC [methyl (Z)-9-hexadecenoate],4.662 ± 0.062
6,CCCCCCCC/C=C\CCCCCCCCCCCC(=O)OC [methyl (Z)-13-docosenoate],12.56 ± 0.16

# Same assay, conditions: 288.15 K; 101.33 kPa; Liquid; Vibrating tube method
row,Compound,mass density [kg/m3]
1,"CC/C=C\C/C=C\C/C=C\CCCCCCCC(=O)OC [methyl (Z,Z,Z)-9,12,15-octadecatrienoate]",905.7 ± 1
2,CCCCC/C=C\C/C=C\CCCCCCCC(=O)OCC [ethyl linoleate],886.3 ± 1
3,CCCCCCCC/C=C\CCCCCCCCCC(=O)OC [methyl cis-11-eicosenoate],877.5 ± 1.2
4,"CC/C=C\C/C=C\C/C=C\CCCCCCCC(=O)OCC [ethyl 9,12,15-octadecatrienoate]",897 ± 1
5,CCCCCC/C=C\CCCCCCCC(=O)OC [methyl (Z)-9-hexadecenoate],872.8 ± 1
6,CCCCCCCC/C=C\CCCCCCCCCCCC(=O)OC [methyl (Z)-13-docosenoate],874.3 ± 1

# Same assay, conditions: 293.15 K; 101.33 kPa; Liquid
row,Compound,viscosity [mPa·s]
1,"CC/C=C\C/C=C\C/C=C\CCCCCCCC(=O)OC [methyl (Z,Z,Z)-9,12,15-octadecatrienoate]",4.484 ± 0.06
2,CCCCC/C=C\C/C=C\CCCCCCCC(=O)OCC [ethyl linoleate],5.423 ± 0.072
3,CCCCCCCC/C=C\CCCCCCCCCC(=O)OC [methyl cis-11-eicosenoate],8.667 ± 0.14
4,"CC/C=C\C/C=C\C/C=C\CCCCCCCC(=O)OCC [ethyl 9,12,15-octadecatrienoate]",4.401 ± 0.059
5,CCCCCC/C=C\CCCCCCCC(=O)OC [methyl (Z)-9-hexadecenoate],4.107 ± 0.055
6,CCCCCCCC/C=C\CCCCCCCCCCCC(=O)OC [methyl (Z)-13-docosenoate],10.66 ± 0.14

# Same assay, conditions: 293.15 K; 101.33 kPa; Liquid; Vibrating tube method
row,Compound,mass density [kg/m3]
1,"CC/C=C\C/C=C\C/C=C\CCCCCCCC(=O)OC [methyl (Z,Z,Z)-9,12,15-octadecatrienoate]",901.9 ± 1
2,CCCCC/C=C\C/C=C\CCCCCCCC(=O)OCC [ethyl linoleate],882.6 ± 1
3,CCCCCCCC/C=C\CCCCCCCCCC(=O)OC [methyl cis-11-eicosenoate],873.8 ± 1.2
4,"CC/C=C\C/C=C\C/C=C\CCCCCCCC(=O)OCC [ethyl 9,12,15-octadecatrienoate]",893.3 ± 1
5,CCCCCC/C=C\CCCCCCCC(=O)OC [methyl (Z)-9-hexadecenoate],869 ± 1
6,CCCCCCCC/C=C\CCCCCCCCCCCC(=O)OC [methyl (Z)-13-docosenoate],870.7 ± 1

# Same assay, conditions: 298.15 K; 101.33 kPa; Liquid
row,Compound,viscosity [mPa·s]
1,"CC/C=C\C/C=C\C/C=C\CCCCCCCC(=O)OC [methyl (Z,Z,Z)-9,12,15-octadecatrienoate]",4.043 ± 0.054
2,CCCCC/C=C\C/C=C\CCCCCCCC(=O)OCC [ethyl linoleate],4.807 ± 0.064
3,CCCCCCCC/C=C\CCCCCCCCCC(=O)OC [methyl cis-11-eicosenoate],7.488 ± 0.12
4,"CC/C=C\C/C=C\C/C=C\CCCCCCCC(=O)OCC [ethyl 9,12,15-octadecatrienoate]",3.961 ± 0.053
5,CCCCCC/C=C\CCCCCCCC(=O)OC [methyl (Z)-9-hexadecenoate],3.647 ± 0.049
6,CCCCCCCC/C=C\CCCCCCCCCCCC(=O)OC [methyl (Z)-13-docosenoate],9.141 ± 0.12

# Same assay, conditions: 298.15 K; 101.33 kPa; Liquid; Vibrating tube method
row,Compound,mass density [kg/m3]
1,"CC/C=C\C/C=C\C/C=C\CCCCCCCC(=O)OC [methyl (Z,Z,Z)-9,12,15-octadecatrienoate]",898.2 ± 1
2,CCCCC/C=C\C/C=C\CCCCCCCC(=O)OCC [ethyl linoleate],878.8 ± 1
3,CCCCCCCC/C=C\CCCCCCCCCC(=O)OC [methyl cis-11-eicosenoate],870.2 ± 1.2
4,"CC/C=C\C/C=C\C/C=C\CCCCCCCC(=O)OCC [ethyl 9,12,15-octadecatrienoate]",889.5 ± 1
5,CCCCCC/C=C\CCCCCCCC(=O)OC [methyl (Z)-9-hexadecenoate],865.2 ± 1
6,CCCCCCCC/C=C\CCCCCCCCCCCC(=O)OC [methyl (Z)-13-docosenoate],867.1 ± 1

# Same assay, conditions: 303.15 K; 101.33 kPa; Liquid
row,Compound,viscosity [mPa·s]
1,"CC/C=C\C/C=C\C/C=C\CCCCCCCC(=O)OC [methyl (Z,Z,Z)-9,12,15-octadecatrienoate]",3.667 ± 0.05
2,CCCCC/C=C\C/C=C\CCCCCCCC(=O)OCC [ethyl linoleate],4.307 ± 0.058
3,CCCCCCCC/C=C\CCCCCCCCCC(=O)OC [methyl cis-11-eicosenoate],6.528 ± 0.1
4,"CC/C=C\C/C=C\C/C=C\CCCCCCCC(=O)OCC [ethyl 9,12,15-octadecatrienoate]",3.583 ± 0.049
5,CCCCCC/C=C\CCCCCCCC(=O)OC [methyl (Z)-9-hexadecenoate],3.289 ± 0.045
6,CCCCCCCC/C=C\CCCCCCCCCCCC(=O)OC [methyl (Z)-13-docosenoate],7.907 ± 0.1

# Same assay, conditions: 303.15 K; 101.33 kPa; Liquid; Vibrating tube method
row,Compound,mass density [kg/m3]
1,"CC/C=C\C/C=C\C/C=C\CCCCCCCC(=O)OC [methyl (Z,Z,Z)-9,12,15-octadecatrienoate]",894.5 ± 1
2,CCCCC/C=C\C/C=C\CCCCCCCC(=O)OCC [ethyl linoleate],875.2 ± 1
3,CCCCCCCC/C=C\CCCCCCCCCC(=O)OC [methyl cis-11-eicosenoate],866.6 ± 1.2
4,"CC/C=C\C/C=C\C/C=C\CCCCCCCC(=O)OCC [ethyl 9,12,15-octadecatrienoate]",885.8 ± 1
5,CCCCCC/C=C\CCCCCCCC(=O)OC [methyl (Z)-9-hexadecenoate],861.4 ± 1
6,CCCCCCCC/C=C\CCCCCCCCCCCC(=O)OC [methyl (Z)-13-docosenoate],863.6 ± 1

# Same assay, conditions: 308.15 K; 101.33 kPa; Liquid
row,Compound,viscosity [mPa·s]
1,"CC/C=C\C/C=C\C/C=C\CCCCCCCC(=O)OC [methyl (Z,Z,Z)-9,12,15-octadecatrienoate]",3.341 ± 0.046
2,CCCCC/C=C\C/C=C\CCCCCCCC(=O)OCC [ethyl linoleate],3.854 ± 0.052
3,CCCCCCCC/C=C\CCCCCCCCCC(=O)OC [methyl cis-11-eicosenoate],5.738 ± 0.09
4,"CC/C=C\C/C=C\C/C=C\CCCCCCCC(=O)OCC [ethyl 9,12,15-octadecatrienoate]",3.258 ± 0.044
